Among the data in PubChem BioAssay AID248 (DTP/NCI, 2004) are T/C values, retold here.

The subject of this assay is L1210 leukemia ip in BDF1 mice, survival T/C. The experiment in a line: NCI In Vivo Anticancer Drug Screen. Data for tumor model L1210 Leukemia (intraperitoneal) in B6D2F1 (BDF1) mice. The note with it: endpoint: mean survival time, higher = longer survival. The procedure, abridged:
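Transplanted-tumor mice were given test agent; controls received vehicle only. Survival readings from the two groups were divided (treated over control).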

[1] abbreviates: dose: 100.0 mg/kg/injection, schedule: Q01DX001 (ip), vehicle: saline.
Where [2] appears, read: dose: 200.0 mg/kg/injection, schedule: Q01DX001 (ip), vehicle: saline.
Setting [3] is: dose: 400.0 mg/kg/injection, schedule: Q01DX001 (ip), vehicle: saline.
[4] abbreviates: dose: 100.0 mg/kg/injection, schedule: Q01DX009 (ip), vehicle: saline.
Where [5] appears, read: dose: 200.0 mg/kg/injection, schedule: Q01DX009 (ip), vehicle: saline.
The mark [6] stands for this setting: dose: 400.0 mg/kg/injection, schedule: Q01DX009 (ip), vehicle: saline.

Toxic doses and inconclusive results are not listed.

Turning to `O=C(CCCc1ccc(N(CCCl)CCCl)cc1)NCc1ccc(N(CCCl)CCCl)cc1`, the T/C (dose: 4.0 mg/kg/injection, schedule: Q12HX018 (sc), vehicle: other) was 103 % of control; the T/C (dose: 6.0 mg/kg/injection, schedule: Q12HX018 (sc), vehicle: other) is 103 % of control; the T/C (dose: 8.0 mg/kg/injection, schedule: Q12HX018 (sc), vehicle: other) is 100 % of control.

For `C/C(C/C(C)=N\N=C(N)N)=N/N=C(N)N`, the T/C was 96 % of control (dose: 15.0 mg/kg/injection, schedule: Q01DX Z (ip), vehicle: carboxymethylcellulose (CMC)); 98 % of control (dose: 30.0 mg/kg/injection, schedule: Q01DX Z (ip), vehicle: carboxymethylcellulose (CMC)); 95 % of control (dose: 60.0 mg/kg/injection, schedule: Q01DX Z (ip), vehicle: carboxymethylcellulose (CMC)); 90 % of control (dose: 60.0 mg/kg/injection, schedule: Q01DX Z (oral), vehicle: carboxymethylcellulose (CMC)); 95 % of control (dose: 120.0 mg/kg/injection, schedule: Q01DX Z (ip), vehicle: carboxymethylcellulose (CMC)); 90 % of control (dose: 120.0 mg/kg/injection, schedule: Q01DX Z (oral), vehicle: carboxymethylcellulose (CMC)). Moreover, the T/C by setting is: (dose: 240.0 mg/kg/injection, schedule: Q01DX Z (oral), vehicle: carboxymethylcellulose (CMC)) 96 % of control; (dose: 480.0 mg/kg/injection, schedule: Q01DX Z (oral), vehicle: carboxymethylcellulose (CMC)) 96 % of control.

For the molecule `[S-]c1n[n+](-c2ccccc2)cs1`, the T/C reads like this: under setting [1], 97 % of control; under setting [2], 95 % of control; under setting [3], 92 % of control.

For `CC(=O)NNC(=O)c1cccnc1`, the T/C was 95 % of control (dose: 100.0 mg/kg/injection, schedule: Q01DX001 (ip), vehicle: water); 95 % of control (dose: 100.0 mg/kg/injection, schedule: Q01DX009 (ip), vehicle: water); 104 % of control (dose: 200.0 mg/kg/injection, schedule: Q01DX001 (ip), vehicle: water); 101 % of control (dose: 200.0 mg/kg/injection, schedule: Q01DX009 (ip), vehicle: water); 101 % of control (dose: 400.0 mg/kg/injection, schedule: Q01DX001 (ip), vehicle: water); 116 % of control (dose: 400.0 mg/kg/injection, schedule: Q01DX009 (ip), vehicle: water). For the same molecule, the T/C (dose: 800.0 mg/kg/injection, schedule: Q01DX009 (ip), vehicle: water) was 116 % of control.

On to `CCCCCCCCCCCC[N+]1([O-])CCOCC1`, for which the T/C (dose: 200.0 mg/kg/injection, schedule: Q04DX002 (ip), vehicle: saline with Tween-80) was 94 % of control and the T/C (dose: 400.0 mg/kg/injection, schedule: Q04DX002 (ip), vehicle: saline with Tween-80) was 102 % of control.

`CC(=O)Oc1ccc[nH]c1=O`: the T/C was 103 % of control (dose: 75.0 mg/kg/injection, schedule: Q01DX001 (ip), vehicle: saline); 103 % of control (dose: 75.0 mg/kg/injection, schedule: Q04DX003 (ip), vehicle: saline); 100 % of control (dose: 100.0 mg/kg/injection, schedule: Q01DX001 (ip), vehicle: carboxymethylcellulose (CMC)); 98 % of control (dose: 100.0 mg/kg/injection, schedule: Q01DX009 (ip), vehicle: carboxymethylcellulose (CMC)); 101 % of control under setting [4]; 102 % of control (dose: 100.0 mg/kg/injection, schedule: Q01DX015 (ip), vehicle: saline). Further, the T/C is, setting by setting: (dose: 150.0 mg/kg/injection, schedule: Q01DX001 (ip), vehicle: saline) 102 % of control; (dose: 150.0 mg/kg/injection, schedule: Q04DX003 (ip), vehicle: saline) 100 % of control; (dose: 200.0 mg/kg/injection, schedule: Q01DX001 (ip), vehicle: carboxymethylcellulose (CMC)) 97 % of control; (dose: 200.0 mg/kg/injection, schedule: Q01DX009 (ip), vehicle: carboxymethylcellulose (CMC)) 109 % of control; under setting [5], 114 % of control; (dose: 200.0 mg/kg/injection, schedule: Q01DX015 (ip), vehicle: saline) 124 % of control. Further, the T/C runs as follows: (dose: 300.0 mg/kg/injection, schedule: Q01DX001 (ip), vehicle: saline) 110 % of control; (dose: 300.0 mg/kg/injection, schedule: Q04DX003 (ip), vehicle: saline) 113 % of control; (dose: 400.0 mg/kg/injection, schedule: Q01DX001 (ip), vehicle: carboxymethylcellulose (CMC)) 103 % of control; under setting [6], 153 % of control; (dose: 800.0 mg/kg/injection, schedule: Q01DX009 (ip), vehicle: carboxymethylcellulose (CMC)) 154 % of control; (dose: 800.0 mg/kg/injection, schedule: Q01DX009 (ip), vehicle: saline) 88 % of control.

Consider `Cc1n[nH]c(=S)n1NC=O`, for which the T/C was 94 % of control under setting [1], 94 % of control under setting [2] and 90 % of control under setting [3].

As to `C[N+]1(C)CCC[N+](C)(C)CC1`, the T/C reads like this: (dose: 55.0 mg/kg/injection, schedule: Q01DX Z (ip), vehicle: saline) 95 % of control; (dose: 83.0 mg/kg/injection, schedule: Q01DX Z (ip), vehicle: saline) 98 % of control; (dose: 125.0 mg/kg/injection, schedule: Q01DX Z (ip), vehicle: saline) 103 % of control.

For `N#CCCN(CCCN1CCOCC1)CN1C(=O)c2ccccc2C1=O`, the T/C (dose: 100.0 mg/kg/injection, schedule: Q04DX002 (ip), vehicle: saline) is 104 % of control; the T/C (dose: 200.0 mg/kg/injection, schedule: Q04DX002 (ip), vehicle: saline) is 93 % of control; the T/C (dose: 400.0 mg/kg/injection, schedule: Q04DX002 (ip), vehicle: saline) is 111 % of control.

With `Cc1ccc(CNC(=S)NC2CCCCC2)cc1C`, the T/C is, setting by setting: (dose: 25.0 mg/kg/injection, schedule: Q01DX009 (ip), vehicle: Klucel (hydroxypropylcellulose) (HPC)) 97 % of control; (dose: 50.0 mg/kg/injection, schedule: Q01DX009 (ip), vehicle: Klucel (hydroxypropylcellulose) (HPC)) 93 % of control; (dose: 100.0 mg/kg/injection, schedule: Q01DX009 (ip), vehicle: Klucel (hydroxypropylcellulose) (HPC)) 93 % of control.

In the case of `Cc1cc(O)c2c(c1O)C(=O)c1ccccc1C2=O`, the T/C is, setting by setting: (dose: 50.0 mg/kg/injection, schedule: Q01DX009 (ip), vehicle: saline) 95 % of control; under setting [4], 95 % of control; (dose: 100.0 mg/kg/injection, schedule: Q04DX003 (ip), vehicle: saline) 98 % of control; under setting [5], 95 % of control; (dose: 200.0 mg/kg/injection, schedule: Q04DX003 (ip), vehicle: saline) 96 % of control; under setting [6], 104 % of control. Besides, the T/C (dose: 400.0 mg/kg/injection, schedule: Q04DX003 (ip), vehicle: saline) is 93 % of control.

As to `N#CC(C#N)C1c2ccccc2C([N+](=O)[O-])c2ccccc21` (stereo unspecified), the T/C was 103 % of control (dose: 100.0 mg/kg/injection, schedule: Q01DX009 (ip), vehicle: saline with Tween-80); 88 % of control (dose: 100.0 mg/kg/injection, schedule: Q04DX003 (ip), vehicle: saline with Tween-80); 96 % of control (dose: 200.0 mg/kg/injection, schedule: Q01DX009 (ip), vehicle: saline with Tween-80); 93 % of control (dose: 200.0 mg/kg/injection, schedule: Q04DX003 (ip), vehicle: saline with Tween-80); 98 % of control (dose: 400.0 mg/kg/injection, schedule: Q01DX009 (ip), vehicle: saline with Tween-80); 101 % of control (dose: 400.0 mg/kg/injection, schedule: Q04DX003 (ip), vehicle: saline with Tween-80).
